# From patent publication US12486269B2 (Aconcagua Bio, Inc., priority 2024, dated 2025)
# Tests used:
# [1] = biological target: T1, COS-7/AMY3 (human calcitonin receptor (CTR) and RAMP3) (Homo sapiens, UniProt O60896+P30988); experiment: Amylin Receptor cAMP Assay II; type: cell-based; conditions: values marked **: Amylin Receptor cAMP Assay II; COS-7/AMY3 cells, cAMP dynamic 2 kit, 30 min; read-out: Amylin Receptor cAMP Stimulation Activity: EC50
# T1 construct: expressed in transfected cells; host or cells: COS-7
# T1 sequence (O60896 24-148, one chain of several): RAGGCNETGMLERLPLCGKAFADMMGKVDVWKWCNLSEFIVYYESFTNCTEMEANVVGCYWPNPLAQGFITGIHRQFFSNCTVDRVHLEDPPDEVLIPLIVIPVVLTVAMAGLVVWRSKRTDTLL
# Summary of the method: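 COS-7 cells stably co-expressing human CTR and RAMP3 (AMY3), 2000 cells/well in HBSS with 20 mM HEPES, 0.5 mM IBMX, 0.1% casein, stimulated with compound for 30 min at 37 °C. cAMP measured by HTRF (665/615 nm), activity normalized between vehicle and maximal control.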
# [2] = biological target: T2, human calcitonin receptor (CTR) (Homo sapiens, UniProt P30988); experiment: Calcitonin Receptor (CTR) cAMP Assay; type: cell-based; conditions: COS7-human CTR Clone #2 stable cell line, cAMP dynamic 2 kit, 30 min; read-out: Calcitonin Receptor cAMP Stimulation Activity: EC50
# T2 construct: expressed in transfected cells; host or cells: COS-7 (COS7-human CTR Clone #2)
# T2 sequence (P30988 25-474): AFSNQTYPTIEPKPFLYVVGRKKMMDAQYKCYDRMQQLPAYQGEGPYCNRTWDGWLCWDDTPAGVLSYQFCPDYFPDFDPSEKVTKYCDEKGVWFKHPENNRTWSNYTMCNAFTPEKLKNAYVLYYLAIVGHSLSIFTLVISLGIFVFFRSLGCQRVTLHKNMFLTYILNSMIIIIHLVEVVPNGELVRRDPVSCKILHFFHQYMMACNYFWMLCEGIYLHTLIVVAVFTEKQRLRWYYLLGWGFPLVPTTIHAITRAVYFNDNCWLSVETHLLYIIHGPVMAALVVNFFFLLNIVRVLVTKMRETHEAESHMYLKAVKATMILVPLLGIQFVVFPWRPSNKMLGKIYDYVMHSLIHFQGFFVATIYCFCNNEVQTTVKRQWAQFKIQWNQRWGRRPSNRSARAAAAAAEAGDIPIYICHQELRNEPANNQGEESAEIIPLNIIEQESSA
# Summary of the method: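 COS-7 cells stably expressing human CTR (2000 cells/well) were incubated 30 min at 37 °C with 4-fold serially diluted compound in HBSS/20 mM HEPES/0.5 mM IBMX/0.1% casein. cAMP was detected by HTRF (665/615 nm) after 1 h at RT. % activity was normalised to vehicle and positive controls.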
EC50 [1],EC50 [2],Compound
0.213 nM,0.0262 nM,"COc1c(F)ccc2c1CC[C@H]2Nc1nccc2cc(-c3c4c(nc(CCc5ccc(F)cc5)c3-c3n[nH]c(=O)o3)C35CC(CN3C4=O)C5)sc12 [Compound 189, (R)-5-(4-(7-((5-fluoro-4-methoxy-2,3-dihydro-1H-inden-1-yl)amino)thieno[2,3-c]pyridin-2-yl)-2-(4-fluorophenethyl)-5-oxo-8,9-dihydro-5H,7H-8,9a-methanopyrido[2,3-a]pyrrolizin-3-yl)-1,3,4-oxadiazol-2(3H)-one]"
0.464 nM,0.0464 nM,"COc1c(F)ccc2c1CC(F)(F)[C@H]2Nc1nccc2cc(-c3c4c(nc(CCc5ccc(F)cc5)c3-c3n[nH]c(=O)o3)[C@@H]3CCCN3C4=O)sc12 [Compound 282, 5-((S)-2-(4-fluorophenethyl)-5-oxo-4-(7-(((S)-2,2,5-trifluoro-4-methoxy-2,3-dihydro-1H-inden-1-yl)amino)thieno[2,3-c]pyridin-2-yl)-7,8,9,9a-tetrahydro-5H-pyrido[2,3-a]pyrrolizin-3-yl)-1,3,4-oxadiazol-2(3H)-one]"
0.54 nM,0.0645 nM,"COc1c(Cl)cc2c(c1F)CC[C@H]2Nc1nccc2cc(-c3c4c(nc(CCc5ccc(F)cc5)c3-c3n[nH]c(=O)o3)C35CC(CN3C4=O)C5)sc12 [Compound 289, (R)-5-(4-(7-((6-chloro-4-fluoro-5-methoxy-2,3-dihydro-1H-inden-1-yl)amino)thieno[2,3-c]pyridin-2-yl)-2-(4-fluorophenethyl)-5-oxo-5,7,8,9-tetrahydro-8,9a-methanopyrido[2,3-a]pyrrolizin-3-yl)-1,3,4-oxadiazol-2(3H)-one]"
17.2 nM,0.154 nM,"CC(c1ccc(C#N)c(F)c1)n1c(=O)oc2cc(-c3c4c(nc(CCc5ccc(F)cc5)c3-c3n[nH]c(=O)o3)[C@@H]3CCCN3C4=O)ccc21 (stereo partly drawn) [Compound 209, 2-fluoro-4-(1-(6-((S)-2-(4-fluorophenethyl)-5-oxo-3-(5-oxo-4,5-dihydro-1,3,4-oxadiazol-2-yl)-7,8,9,9a-tetrahydro-5H-pyrido[2,3-a]pyrrolizin-4-yl)-2-oxobenzo[d]oxazol-3(2H)-yl)ethyl)benzonitrile]"
1.79 nM,0.165 nM,"O=C1c2c(nc(CCc3ccc(F)cc3)c(-c3n[nH]c(=O)o3)c2-c2cc3ccnc(N[C@@H]4CCc5cc(Cl)ccc54)c3s2)C23CC(CN12)C3 [Compound 273, (R)-5-(4-(7-((5-chloro-2,3-dihydro-1H-inden-1-yl)amino)thieno[2,3-c]pyridin-2-yl)-2-(4-fluorophenethyl)-5-oxo-8,9-dihydro-5H,7H-8,9a-methanopyrido[2,3-a]pyrrolizin-3-yl)-1,3,4-oxadiazol-2(3H)-one]"
14.6 nM,0.738 nM,"COc1c(F)ccc2c1CC[C@H]2Nc1cccc2nc(-c3c4c(nc(CCc5ccc(F)cc5)c3-c3n[nH]c(=O)o3)C35CC(CN3C4=O)C5)sc12 [Compound 267, (R)-5-(4-(7-((5-fluoro-4-methoxy-2,3-dihydro-1H-inden-1-yl)amino)benzo[d]thiazol-2-yl)-2-(4-fluorophenethyl)-5-oxo-8,9-dihydro-5H,7H-8,9a-methanopyrido[2,3-a]pyrrolizin-3-yl)-1,3,4-oxadiazol-2(3H)-one]"
203 nM,3.19 nM,"COc1cccc2c1CC[C@H]2Nc1nccc2cc(-c3c4c(nc(CCc5ccc(F)cc5)c3-c3n[nH]c(=O)o3)[C@]3(C)CCCN3C4=O)sc12 [Compound 178, 5-((S)-2-(4-fluorophenethyl)-4-(7-(((R)-4-methoxy-2,3-dihydro-1H-inden-1-yl)amino)thieno[2,3-c]pyridin-2-yl)-9a-methyl-5-oxo-7,8,9,9a-tetrahydro-5H-pyrido[2,3-a]pyrrolizin-3-yl)-1,3,4-oxadiazol-2(3H)-one]"
301 nM,3.7 nM,"CC(C)C1CS(=O)(=O)c2c1nc(CCC1CCOCC1)c(-c1cc(=O)[nH]o1)c2-c1ccc2c(ccn2Cc2ccc(C#N)c(F)c2)c1 (stereo not shown) [Compound 199, 2-fluoro-4-[[5-[3-isopropyl-1,1-dioxo-6-(3-oxoisoxazol-5-yl)-5-(2-tetrahydropyran-4-ylethyl)-2,3-dihydrothieno[3,2-b]pyridin-7-yl]indol-1-yl]methyl]benzonitrile]"
159 nM,22 nM,"COc1cccc2c1CC[C@H]2Nc1nccc2cc(-c3c4c(nc(CCc5cccc(C6CCOC6)c5)c3-c3noc(=O)[nH]3)[C@@H]3CCCN3C4=O)sc12 (stereo partly drawn) [Compound 151, 3-((9aS)-4-(7-(((R)-4-methoxy-2,3-dihydro-1H-inden-1-yl)amino)thieno[2,3-c]pyridin-2-yl)-5-oxo-2-(3-(tetrahydrofuran-3-yl)phenethyl)-7,8,9,9a-tetrahydro-5H-pyrido[2,3-a]pyrrolizin-3-yl)-1,2,4-oxadiazol-5(4H)-one]"
18.2 nM,0.628 nM,"COc1cccc2c1CC[C@H]2Nc1nccc2cc(-c3c4c(nc(CCc5cccc(C(F)(F)F)c5)c3-c3noc(=O)[nH]3)[C@@H]3CCCN3C4=O)sc12 [Compound 124, 3-((S)-4-(7-(((R)-4-methoxy-2,3-dihydro-1H-inden-1-yl)amino)thieno[2,3-c]pyridin-2-yl)-5-oxo-2-(3-(trifluoromethyl)phenethyl)-7,8,9,9a-tetrahydro-5H-pyrido[2,3-a]pyrrolizin-3-yl)-1,2,4-oxadiazol-5(4H)-one]"
10.7 nM,0.557 nM,"N#Cc1ccc(Cn2c(=O)oc3cc(-c4c5c(nc(CCc6ccc(F)cc6)c4-c4n[nH]c(=O)o4)[C@@H]4CCCN4C5=O)ccc32)nc1 [Compound 176, 6-[[6-[(9aS)-2-[2-(4-fluorophenyl)ethyl]-5-oxo-3-(2-oxo-3H-1,3,4-oxadiazol-5-yl)-7,8,9,9a-tetrahydropyrido[2,3-a]pyrrolizin-4-yl]-2-oxo-1,3-benzoxazol-3-yl]methyl]pyridine-3-carbonitrile]"
74.4 nM,0.331 nM,"O=C1c2c(nc(CCc3ccc(F)cc3)c(-c3n[nH]c(=O)o3)c2-c2ccc3c(c2)oc(=O)n3Cc2ncc(Cl)cc2F)[C@@H]2CCCN12 [Compound 208, (S)-3-((5-chloro-3-fluoropyridin-2-yl)methyl)-6-(2-(4-fluorophenethyl)-5-oxo-3-(5-oxo-4,5-dihydro-1,3,4-oxadiazol-2-yl)-7,8,9,9a-tetrahydro-5H-pyrido[2,3-a]pyrrolizin-4-yl)benzo[d]oxazol-2(3H)-one]"
865 nM,15.5 nM,"O=C1c2c(nc(CCc3ccc(F)cc3)c(-c3n[nH]c(=O)o3)c2-c2ccc3c(Cc4ccc(F)cc4F)noc3c2)[C@@H]2CCCN12 [Compound 221, (S)-5-(4-(3-(2,4-difluorobenzyl)benzo[d]isoxazol-6-yl)-2-(4-fluorophenethyl)-5-oxo-7,8,9,9a-tetrahydro-5H-pyrido[2,3-a]pyrrolizin-3-yl)-1,3,4-oxadiazol-2(3H)-one]"
55.4 nM,2.48 nM,"COc1cccc2c1CC[C@H]2Nc1nccc2cc(-c3c(-c4n[nH]c(=O)o4)c(CCc4ccc(F)cc4)nc4c3S(=O)(=O)CC4C(C)C)sc12 (stereo partly drawn) [Compound 156, 5-(5-(4-fluorophenethyl)-3-isopropyl-7-(7-(((R)-4-methoxy-2,3-dihydro-1H-inden-1-yl)amino)thieno[2,3-c]pyridin-2-yl)-1,1-dioxido-2,3-dihydrothieno[3,2-b]pyridin-6-yl)-1,3,4-oxadiazol-2(3H)-one]"
19.1 nM,0.469 nM,"COc1cccc2c1CC[C@H]2Nc1nccc2cc(-c3c4c(nc(CCc5cc(F)cs5)c3-c3n[nH]c(=O)o3)[C@@H]3CCCN3C4=O)sc12 [Compound 245, 5-((S)-2-(2-(4-fluorothiophen-2-yl)ethyl)-4-(7-(((R)-4-methoxy-2,3-dihydro-1H-inden-1-yl)amino)thieno[2,3-c]pyridin-2-yl)-5-oxo-7,8,9,9a-tetrahydro-5H-pyrido[2,3-a]pyrrolizin-3-yl)-1,3,4-oxadiazol-2(3H)-one]"
10.2 nM,0.696 nM,"COc1cc2c(cc1F)[C@H](Nc1nccc3cc(-c4c5c(nc(CCc6ccc(F)cc6)c4-c4n[nH]c(=O)o4)[C@@H]4CCCN4C5=O)sc13)CC2 [Compound 257, 5-((S)-4-(7-(((R)-6-fluoro-5-methoxy-2,3-dihydro-1H-inden-1-yl)amino)thieno[2,3-c]pyridin-2-yl)-2-(4-fluorophenethyl)-5-oxo-7,8,9,9a-tetrahydro-5H-pyrido[2,3-a]pyrrolizin-3-yl)-1,3,4-oxadiazol-2(3H)-one]"
11.2 nM,0.588 nM,"CC(C)C1CS(=O)(=O)c2c1nc(CCc1ccc(F)cc1)c(-c1n[nH]c(=O)o1)c2-c1ccc2c(c1)oc(=O)n2Cc1ccc(C#N)cn1 (stereo not shown) [Compound 163, 6-((6-(5-(4-fluorophenethyl)-3-isopropyl-1,1-dioxido-6-(5-oxo-4,5-dihydro-1,3,4-oxadiazol-2-yl)-2,3-dihydrothieno[3,2-b]pyridin-7-yl)-2-oxobenzo[d]oxazol-3(2H)-yl)methyl)nicotinonitrile]"
